Test system: Lmna G609G/+ mouse
Assay: Life span of Lmna G609G/+ mice
Format: in vivo
Text: Fig. 3 In vivo favorable effect of SLC-D011. A Gross morphology of Lmna^G609G/G609G mice (10 weeks old) was ameliorated after injection with SLC-D011. At the same age, the experimental group (D011) of mice were larger than vehicle-injected control (Con) subjects regardless of gender. B, C SLC-D011 increases body weight B and extends life span C of Lmna^G609G/G609G progeria model mouse (Con: n = 8; SLC-D011: n = 8). Compared with 14.8 weeks of average (ave) life span with maximum (max) life span of 15.5 weeks, 20 mg/kg of intraperitoneal (i.p) injection (twice a week) of SLC-D011 could extend the life span upto 19 weeks (max = 21 weeks). Lmna^G609G/G609G mice were injected with SLC-D011 from age of 5-week old, *p < 0.05. D Gross morphology of SLC-D011 injected Lmna^G609G/+ mouse. […] E SLC-D011 increases body weights of Lmna^G609G/+ mice (Con: n = 10; SLC-D011: n = 11), *p < 0.05. F Favorable effect of SLC-D011 on life span of Lmna^G609G/+ mice. Compared with vehicle-injected control group (ave = 46.7 weeks and max = 48 weeks), SLC-D011 treatment obviously extended the average life span to 63 weeks (max = 64 weeks). The injection was started from 32 weeks old, **p < 0.001. “Con” means vehicle (a solvent composed of DMSO and PBS)-injected mouse group. TEXT PRINTED IN THE PICTURE: (C) D011: Kaplan-Meier survival curve in Lmna^G609G/G609G: Ave=19; Kaplan-Meier survival curve in Lmna^G609G/G609G: Max=21 | (F) D011: Kaplan-Meier survival curve in Lmna^G609G/+: Ave=63; Kaplan-Meier survival curve in Lmna^G609G/+: Max=64 DOUBTS OF THE COPYIST ABOUT THIS PICTURE: Panels C and F: the Ave/Max labels are not printed with a group name. They are assigned to D011 (solid curve) or Con (dashed curve) only by their position beside the curves. / Panel C Ave=14.8, Max=15.5 and panel F Ave=46.7, Max=48 stand beside the dashed Con curve. They are left out because Con is the control group, not a substance. / No unit is printed with the Ave/Max values. Only the axis reads Age (weeks).
Animal experiments were performed in a facility certified by the Association for Assessment and Accreditation of Laboratory Animal Care in compliance with animal policies approved by Pusan National University. The mouse work was performed under the study protocol PNU-2019-2181, as approved by the Institutional Animal Care and Use Committee. Lmna^G609G/609G mice were generated by timed mating of heterozygous Lmna^G609G/+ provided by Carlos López-Otín (Universidad de Oviedo, Asturias, Oviedo, Spain). SLC-D011 was mixed with dimethyl sulfoxide (DMSO) and phosphate-buffered saline (PBS). It was then intraperitoneally injected into mice (20 mg/kg twice per week from 5-week-old). SLC-D011 and lonafarnib were orally administrated to mice daily at a concentration of 10 mg/ml in monoolein-based solution. Lonafarnib was generously provided by Merck, the Progeria Research Foundation (PRF) and the PRF Lonafarnib Pre-clinical Drug Supply Program. Control mice were treated with monoolein-based solution alone in the same way. Lmna^G609G/609G mice were treated with clear chemical solution throughout the life span, starting from 5 weeks of age. Lmna^G609G/+ mice were treated via intraperitoneal and oral administrations, starting from 32 weeks of age.
Fig. S10. Or al administration of SLC-D011 suppresses premature aging features of LmnaG609G/+ mi c e . A.
Gross morphology of SLC-D011 treated Lmna G609G/+ mice at 36 weeks old. […]

## CC1(C)Oc2cc3oc(=O)ccc3cc2C[C@@H]1OC/C=C/c1ccccc1 [SLC-D011]
i.p. injection from 32 weeks old
  Average life span: 63 weeks
i.p. injection, longer than control (untreated)
  Extension of life span: ~ 16 weeks
Oral 50 mg/kg daily
  Maximum life span: 65.5 weeks
Oral 50 mg/kg daily, 50 mg/kg
  Average life span: 64.9 weeks
Oral 50 mg/kg daily, listed as progerinin, 50 mg/kg
  Average life span: 65 weeks

Source: publication PMC7782499, “Progerinin, an optimized progerin-lamin A binding inhibitor, ameliorates premature senescence phenotypes of Hutchinson-Gilford progeria syndrome” (Communications Biology, 2021)
